In this assay the target is hTS (recombinant human TS, thymidylate synthase) (Homo sapiens, UniProt P04818). The assay can be described thus: UV absorbance at […] nm, TS activity. Type of assay: biochemical.

SMILES strings stand for the structures.

hTS (recombinant human TS, thymidylate synthase), sequence (P04818 2-313): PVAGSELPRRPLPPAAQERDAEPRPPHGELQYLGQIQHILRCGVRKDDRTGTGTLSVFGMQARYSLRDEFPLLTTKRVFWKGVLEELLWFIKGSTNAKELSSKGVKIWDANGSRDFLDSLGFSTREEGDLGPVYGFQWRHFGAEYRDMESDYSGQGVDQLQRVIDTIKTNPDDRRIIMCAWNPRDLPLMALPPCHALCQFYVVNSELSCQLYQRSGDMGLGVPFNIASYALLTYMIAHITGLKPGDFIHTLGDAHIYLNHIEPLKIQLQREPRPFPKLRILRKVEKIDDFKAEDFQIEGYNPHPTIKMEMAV

On to `Cc1ccccc1-c1nnc(-c2cccc(NS(=O)(=O)c3c[nH]c(=O)[nH]c3=O)c2)o1` [7b, N-(3-(5-(o-tolyl)-1,3,4-oxadiazol-2-yl)phenyl)-2,4-dihydroxypyrimidine −5-sulfonamide], for which the IC50 (usually the concentration at which inhibition is half-maximal) is 2750 ± 290 nM.

`Cc1cccc(-c2nnc(-c3cccc(NS(=O)(=O)c4c[nH]c(=O)[nH]c4=O)c3)o2)c1` [7c, N-(3-(5-(m-tolyl)-1,3,4-oxadiazol-2-yl)phenyl)-2,4-dihydroxypyrimidine-5-sulfonamide]: the IC50 was found to be 1460 ± 370 nM.

In the case of `O=c1[nH]cc(S(=O)(=O)Nc2cccc(-c3nnc(-c4ccccc4F)o3)c2)c(=O)[nH]1` [7h, N-(3-(5-(2-fluorophenyl)-1,3,4-oxadiazol-2-yl)phenyl)-2,4-dihydroxypyrimidine-5-sulfonamide], the IC50 worked out at 5180 ± 730 nM.

In the case of `O=c1[nH]cc(S(=O)(=O)Nc2cccc(-c3nnc(-c4ccc(Cl)cc4)o3)c2)c(=O)[nH]1` [7g, N-(3-(5-(4-chlorophenyl)-1,3,4-oxadiazol-2-yl)phenyl)-2,4-dihydroxypyrimidine-5-sulfonamide], the IC50 was 440 ± 100 nM.

For the compound `O=c1[nH]cc(S(=O)(=O)Nc2cccc(-c3nnc(-c4cccc(Cl)c4)o3)c2)c(=O)[nH]1` [7f, N-(3-(5-(3-chlorophenyl)-1,3,4-oxadiazol-2-yl)phenyl)-2,4-dihydroxypyrimidine-5-sulfonamide], the half-maximal inhibitory concentration (IC50) came out at 110 ± 30 nM.

With `O=c1[nH]cc(S(=O)(=O)Nc2cccc(-c3nnc(-c4ccccc4)o3)c2)c(=O)[nH]1` [7a, N-(3-(5-phenyl-1,3,4-oxadiazol-2-yl)phenyl)-2,4-dihydroxypyrimidine-5-sulfuramide], the IC50 was 3150 ± 610 nM.

With `Cc1ccc(-c2nnc(-c3cccc(NS(=O)(=O)c4c[nH]c(=O)[nH]c4=O)c3)o2)cc1` [7d, N-(3-(5-(p-tolyl)-1,3,4-oxadiazol-2-yl)phenyl)-2,4-dihydroxypyrimidine-5-sulfonamide], the IC50 is 1790 ± 120 nM.

For `O=c1[nH]cc(S(=O)(=O)Nc2cccc(-c3nnc(-c4ccccc4Cl)o3)c2)c(=O)[nH]1` [7e, N-(3-(5-(2-chlorophenyl)-1,3,4-oxadiazol-2-yl)phenyl)-2,4-dihydroxypyrimidine-5-sulfonamide], the half-inhibitory concentration (IC50) came to 650 ± 430 nM.

Regarding `O=c1[nH]cc(S(=O)(=O)Nc2cccc(-c3nnc(-c4cccc(F)c4)o3)c2)c(=O)[nH]1` [7i, N-(3-(5-(3-fluorophenyl)-1,3,4-oxadiazol-2-yl)phenyl)-2,4-dihydroxypyrimidine-5-sulfonamide], the IC50 came out at 4610 ± 1100 nM.

In the case of `Nc1nc2[nH]cc(CCc3ccc(C(=O)N[C@@H](CCC(=O)O)C(=O)O)cc3)c2c(=O)[nH]1` [PTX], the IC50 came to 2440 ± 880 nM.

As for `O=c1[nH]cc(S(=O)(=O)Nc2cccc(-c3nnc(-c4ccc(Br)cc4)o3)c2)c(=O)[nH]1` [7m, N-(3-(5-(4-bromophenyl)-1,3,4-oxadiazol-2-yl)phenyl)-2,4-dihydroxypyrimidine-5-sulfonamide], the IC50 was 1290 ± 120 nM.

For the compound `O=c1[nH]cc(S(=O)(=O)Nc2cccc(-c3nnc(-c4ccccc4Br)o3)c2)c(=O)[nH]1` [7k, N-(3-(5-(2-bromophenyl)-1,3,4-oxadiazol-2-yl)phenyl)-2,4-dihydroxypyrimidine-5-sulfonamide], the IC50 is 1160 ± 370 nM.

With `O=c1[nH]cc(S(=O)(=O)Nc2cccc(-c3nnc(-c4cccc(Br)c4)o3)c2)c(=O)[nH]1` [7l, N-(3-(5-(3-bromophenyl)-1,3,4-oxadiazol-2-yl)phenyl)-2,4-dihydroxypyrimidine-5-sulfonamide], the 50% inhibitory concentration (IC50) is 930 ± 280 nM.
